# Laboratory results from PubChem BioAssay AID651703 (Broad Institute, 2012).
# Target: Transforming acidic coiled-coil-containing protein 3 (Homo sapiens) (UniProt Q9Y6A5)
# Assay: inhibition of ARNT PAS-B/TACC3 complex formation – biochemical, AlphaScreen, cherry-picked samples, confirmation (AID 651703);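 note: TACC3 partner is the GST-tagged E629A mutant dimer; hits lower the signal meaning they disrupt ARNT binding to TACC3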
# Settings: AlphaScreen His-ARNT PAS-B / GST-TACC3 binding, luminescence
row,Structure (SMILES),AC50 [µM]
1,CCOc1cccc(/C=N/NC(=O)c2cccnc2)c1O,21.6
2,Cc1cccc(OCc2nc(-c3ccccn3)n[nH]2)c1,5.94
3,COc1cccc(C2c3[nH]c4ccccc4c3CCN2Cc2ncc[nH]2)c1 (configuration not stated),38
4,O=C(CNCc1ccccn1)Nc1ccc([N+](=O)[O-])cc1C(=O)Nc1ccccc1F,3.05
5,Cc1[nH]n(-c2ccccc2)c(=O)c1/C=N/N(c1ccccc1)c1ccccc1,16.2
6,CN(C)CCCNc1cc(O)c2ncccc2c1,0.583
7,C[C@H](Nc1nc(-c2ccccn2)nnc1-c1ccccc1)C1CCCCC1,0.53
8,Cc1ccccc1CSc1nnc(-c2ccccn2)n1N,31.7
9,O=C(CN1C(=O)C2CCCCC2C1=O)Nc1nc(-c2ccccn2)cs1 (configuration not stated),5.15
10,O=C(CSc1ccc2nnc(-c3ccccn3)n2n1)Nc1ccccc1C(F)(F)F,50.7
11,CCN(CC)c1ccc(Nc2nc(N3CCOCC3)c3ccccc3n2)cc1,4.99
12,COc1ccccc1-c1nnc(NC(=O)c2cccc(N3C(=O)CCC3=O)c2)o1,29
13,O=C(N[C@@H]1CC[C@H](CCn2cc(-c3ccccn3)nn2)O[C@@H]1CO)c1ccncc1,8.23
14,CC1=C(SCc2ccccc2)C(=O)c2ccccc2C1=O,39.7
15,COc1cc(CCNc2ccc3nnc(-c4ccccc4)n3n2)cc(OC)c1OC,10.6
16,COC(=O)c1ccc2[nH]c3c(c2c1)CC(C)CC3 (configuration not stated),33.2
17,O=C(N/N=C\c1cccc([N+](=O)[O-])c1O)C1COc2ccccc2O1 (configuration not stated),14.7
18,O=S(=O)(N[C@@H]1CC[C@H](CCn2cc(-c3ccccn3)nn2)O[C@H]1CO)c1cccc(Cl)c1,22
19,O=C(Cc1ccccc1)Nc1nnc(-c2ccco2)o1,56.9

row,Structure (SMILES),AC50 [µM]
1,C=C1c2cccc(O)c2C(=O)C2C(=O)[C@]3(O)C(=O)C(C(N)=O)C(=O)[C@@H](N(C)C)[C@@H]3[C@@H](O)[C@H]12 (some centres not stated),21.2
2,O=C(CSc1ccc(-c2ccccn2)nn1)NCc1ccc(F)cc1,6.65
3,c1ccc(-c2nnc(SCc3nc4ccccc4[nH]3)n2Cc2ccco2)nc1,19.8
4,COc1cccc(/C=N/n2c(-c3n[nH]c4c3CCC4)n[nH]c2=S)c1O,28.7
5,O=S(=O)(N[C@H]1CC[C@@H](CCn2cc(-c3ccccn3)nn2)O[C@H]1CO)c1cccc(F)c1,19.1
6,N#Cc1ccc(C(=O)Nc2nnc(-c3ccccn3)o2)cc1,22.4
7,Cc1ccccc1C(=O)Nc1cccc(C(=O)N/N=C/c2cc(Cl)cc([N+](=O)[O-])c2O)c1,40
8,O=C(O)c1cn[nH]c1-n1cnnn1,40.6
9,CC1CCCN(S(=O)(=O)c2ccc(C(=O)Nc3nnc(C4CC4)o3)cc2)C1 (configuration not stated),31.9
10,Cc1nc2ccccc2n1CC(=O)c1ccc(O)c(O)c1,49.8
11,O=S(=O)(c1ccccc1)N1C[C@@H]2[C@H](c3ccccc31)[C@H](CO)N2Cc1ccccn1,61.5
12,C[C@H]1CN([C@@H](C)CO)C(=O)c2cccc(NC(=O)Nc3cccc4ccccc34)c2O[C@@H]1CN(C)S(=O)(=O)c1ccc(Cl)cc1,51.9
13,CC(=O)NC(c1ccco1)c1cc(F)c2cccnc2c1O (configuration not stated),5.76
14,c1ccc(N=Nc2ccc3cccccc2-3)cc1,1.68
15,CCN(CC)S(=O)(=O)c1cccc(C(=O)N/N=C/c2ccc(O)c(O)c2O)c1,4.5
16,Oc1c(Cl)cc(CN2CCOCC2)c2cccnc12,1.15
17,O=C(CSc1cccc2cccnc12)OCC(=O)c1ccccc1,37.3
18,O=C(N[C@H]1CC[C@@H](CCn2cc(-c3ccccn3)nn2)O[C@H]1CO)c1ccccc1,12.1
19,Cc1nnc(NC(=O)c2ccc(S(=O)(=O)N3CC(C)OC(C)C3)cc2)o1 (configuration not stated),44.6

row,Structure (SMILES),AC50 [µM]
1,c1ccc(-c2nnc(-c3ccccn3)nc2NCC2CC2)cc1,< 0.5
2,Cc1ccccc1Nc1nc(N)nc(CN(C)Cc2ccccc2Cl)n1,53.5
3,COc1cc2c(cc1O)C[C@H]1NCCc3cc4c(c-2c31)OCO4,27.7
4,O=C(Nc1ccccc1C(=O)Nc1ccccc1C(=O)O)c1ccccc1,65.3
5,CS(=O)(=O)c1ccccc1-c1nnc(NC(=O)c2ccc3ncsc3c2)o1,25.4
6,Fc1ccc(-c2ccc(CNCc3ccccn3)o2)cc1Cl,17.5
7,Cc1[nH]n(-c2ccccc2)c(=O)c1/C=N/NC(=O)COc1ccccc1[N+](=O)[O-],15.8
8,O=C(COC(=O)c1ccco1)Nc1nnc(-c2ccccc2)o1,24.8
9,Cn1c(CNc2ccccc2O)nc2ccccc21,21.8
10,N[C@H]1CC[C@@H](CCn2cc(-c3ccccn3)nn2)O[C@H]1CO,1.42
11,COC(=O)Cc1cc(=O)n(-c2nc3ccccc3[nH]2)[nH]1,2.68
12,C/C=C/c1ccc([C@H]2[C@@H](CNC(=O)CC)N(Cc3ccccn3)[C@H]2CO)cc1,45
13,COc1cc(NS(=O)(=O)c2ccc(Nc3nc(-c4ccccn4)cs3)cc2)nc(OC)n1,17.3
14,O=C(N[C@@H]1CC[C@H](CCn2cc(-c3ccccn3)nn2)O[C@@H]1CO)c1ccccc1,20.7
15,c1ccc(-c2nnc(-c3ccccn3)nc2N2CCC(N3CCOCC3)CC2)cc1,< 0.5
16,NC(=O)CSc1nnc(-c2ccc(O)cc2)n1Cc1ccco1,40.8
17,O=C(CSc1ccc(-c2ccccn2)nn1)NCc1ccc(Cl)cc1,11
18,Cn1c(-c2ccccc2)cnc1Nc1nc(-c2ccccn2)nnc1-c1ccccc1,2.26
19,Oc1ccc(Cl)cc1CNc1cccc2cccnc12,54.8
